Measurements published in article PMC8431557, “Multilevel Approach for the Treatment of Giardiasis by Targeting Arginine Deiminase” (International Journal of Molecular Sciences, 2021).

Key:
[1] = biological target: T1, GlADI (giardial arginine deiminase) (Giardia duodenalis, UniProt E2RU36); test: residual activity after […] h preincubation, GlDH-coupled NADH assay; type: biochemical; set-up: gene GL50803_00112103; recombinant in pET28a(+), E. coli Rosetta 2 (DE3) pLysS; N-terminal His6 tag not cleaved; 580 residues; homodimer; 16 Cys per monomer; conditions: covalent (Cys modification); 2 h, pH 8.0, 25 °C
T1 sequence (E2RU36 entry or part of it): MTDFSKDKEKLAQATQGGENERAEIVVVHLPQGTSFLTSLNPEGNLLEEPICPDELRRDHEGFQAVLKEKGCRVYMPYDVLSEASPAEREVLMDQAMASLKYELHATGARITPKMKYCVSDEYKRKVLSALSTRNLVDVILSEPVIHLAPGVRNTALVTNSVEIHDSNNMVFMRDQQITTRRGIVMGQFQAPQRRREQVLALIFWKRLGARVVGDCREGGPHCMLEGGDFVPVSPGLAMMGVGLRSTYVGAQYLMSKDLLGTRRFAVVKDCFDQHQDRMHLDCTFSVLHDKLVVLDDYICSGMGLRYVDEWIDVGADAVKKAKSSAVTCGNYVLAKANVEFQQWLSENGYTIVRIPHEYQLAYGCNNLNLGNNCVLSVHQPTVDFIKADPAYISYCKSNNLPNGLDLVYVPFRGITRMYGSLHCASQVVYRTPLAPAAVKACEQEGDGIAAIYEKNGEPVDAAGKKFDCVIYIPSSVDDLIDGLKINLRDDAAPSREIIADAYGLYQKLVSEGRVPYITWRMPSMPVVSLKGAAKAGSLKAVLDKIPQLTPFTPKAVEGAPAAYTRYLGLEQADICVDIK

[2] = biological target: T1, GlADI (giardial arginine deiminase); set-up: gene GL50803_00112103; conditions: 8 mM L-arginine, pH 8.0, 25 °C
[3] = biological target: T1, GlADI (giardial arginine deiminase); test: residual activity after timed preincubation, GlDH-coupled NADH assay; slope of k1 vs concentration; type: biochemical; set-up: gene GL50803_00112103; recombinant in pET28a(+), E. coli Rosetta 2 (DE3) pLysS; N-terminal His6 tag not cleaved; 580 residues; homodimer; 16 Cys per monomer; conditions: covalent (Cys modification), second-order inactivation rate constant, pH 8.0, 25 °C

Row | Compound | residual activity (%) [1] | further results
1 | CC(=C(CCOC(=O)C(C)C)SSC(CCOC(=O)C(C)C)=C(C)N(C=O)Cc1cnc(C)nc1N)N(C=O)Cc1cnc(C)nc1N (stereo in doubt) [sulbutiamine] | all of these drugs were able to inhibit recombinant GlADI in vitro in a dose-dependent manner | 
2 | O=C(O)c1cc(SSc2ccc([N+](=O)[O-])c(C(=O)O)c2)ccc1[N+](=O)[O-] [DTNB, dithio-bis-nitrobenzoic acid] | caused inactivation of the enzyme in a dose-dependent manner (Figure 1E,F) | 
3 | N=C(N)NCCC[C@H](N)C(=O)O [L-arginine] |  | GlDH-coupled NADH oxidation at 340 nm [2]: monitoring the conversion of L-arginine to citrulline
4 | CSS(C)(=O)=O [MMTS, s-methyl methanethiosulfonate] |  | k2 ([3]; 2.5-85 µM): 15.68 ± 0.9 M⁻¹ s⁻¹
5 | COc1ccc2[nH]c([S+]([O-])Cc3ncc(C)c(OC)c3C)nc2c1 (stereo not drawn) [omeprazole] | all of these drugs were able to inhibit recombinant GlADI in vitro in a dose-dependent manner | 
6 | COCCCOc1ccnc(C[S+]([O-])c2nc3ccccc3[nH]2)c1C (stereo not drawn) [rabeprazole] |  | k2 ([3]; 5-110 µM): 6.72 ± 0.2 M⁻¹ s⁻¹
